# Reference: patent publication US20090069429A1 (SGP & SONS AB, priority 2006, published 2009)
# “Also recorded” adds a separate entry of the source.
# Key:
# [1] = tested on: slow-twitch soleus muscle; assay: Contractile endurance and force of isolated soleus muscle from rats given AKG, continuous electrical stimulation at 40 Hz; format: in vivo, rat
# Procedure: FIG. 4 presents contracting characteristics of soleus muscles in uremic rats +test component (n=10), control rats+placebo (n=8), control rats+test component (n=4) incubated in Krebs Ringer physiological solution (30 min. incubation) and electrically stimulated at 40 Hz (32 mA, 1 ms, <90V).
# (§1) Animals were kept in a thermostatically controlled chamber, containing the equipment to measure contractile force in isolated rat skeletal muscle, i.e. a computer, analogue-digital transducer, amplifier, differential amplifier, stimulator, […] and 5% carbon dioxide.
# (§2) Thermostatically controlled chamber, maintained at 30° C., contained a glass diffuser for efficient oxygenation of buffer, a mounting/stimulation block with 2 pins to fix portion of fibula in place and 2 silver stimulating electrodes.
# [2] = tested on: fast-twitch extensor digitorum longus muscle (EDL); assay: Contractile endurance and force of isolated extensor digitorum longus muscle from rats given AKG, continuous electrical stimulation at 90 Hz; format: in vivo, rat
# Procedure: FIG. 5 presents contracting characteristics of extensor digitorum longus muscle in uremic rats+test component (n=3) and control rats+test component (n=2) incubated in Krebs Ringer solution and uremic rats+test component (n=3) incubated in Uremic Buffer (30 min.), 90 Hz, 1 ms and <90V.
# as §1, §2
# muscle = assay: Muscle performance after oral AKG (general conclusions); format: in vivo, rat
# Procedure: as §1, §2
# soleus muscles = details: 48-h T3 subcutaneously; 90 Hz continuous stimulation; cited from earlier work
# [3] = AKG-administered uremic rats, Krebs Ringer vs Uremic buffer incubation
Compound,"endurance profile of soleus muscle (buffer effect) [1, 3]","endurance of soleus muscles ([1]; control rats given AKG vs placebo, incubated in Krebs Ringer)","slowing of Rate of Force Generation ([1]; slow-twitch muscles, oral treatment 21 days or less) [%]","Maximal Isometric Force improvement ([1]; slow-twitch muscles, oral treatment 21 days or less, vs untreated controls) [%]",endurance performance of extensor digitorum longus muscle ([2]; AKG administered uremic rats vs placebo administered uremic rats),"endurance profile of extensor digitorum longus muscle (buffer effect) [2, 3]","slowing of Rate of Force Generation ([2]; fast-twitch muscles, oral treatment 21 days or less) [%]","Maximal Isometric Force improvement ([2]; fast-twitch muscles, oral treatment 21 days or less, vs untreated controls) [%]",effect on muscle performance in terms of endurance during sustained contraction (muscle; AKG administration),peripheral fatigue during sustained contraction at normal working frequency (muscle; oral AKG),period within which muscle function improves (muscle; oral preparation) [days],rate of fatigue of soleus muscle (soleus muscles)
"O=C(O)CCC(=O)C(=O)O [AKG, alpha-ketoglutarate]",better endurance profile,improves the endurance; also recorded: improved endurance,~130,12,improved performance,better endurance profile,~8.5,28,beneficial effect,reduce,≤ 21,
"N[C@@H](Cc1cc(I)c(Oc2ccc(O)c(I)c2)c(I)c1)C(=O)O [T3, 3,5,3′-triiodothyronine]",,,,,,,,,,,,rapid rate of fatigue
